Source: patent US5705531A, “1,5-disubstituted 7A-methylperhydroinden-3A-ol derivatives, useful in treating cardiovascular disorders, processes for their preparation and pharmaceutical compositions containing the same” (Sigma-Tau Industrie Farmaceutiche Riunite S.p.A., priority 1994, dated 1998)
Counter-ions that a name gives are not always drawn.

How the values were obtained:
[1] = system: spontaneous hypertensive rats (MHS); test: effect of 5 week-treatment on the development of hypertension; SBP and HR by tail cuff method; format: in vivo, rat (MHS); details: 20 mg/Kg/os daily in Methocel 0.5%, 5 weeks; for SBP: n=7, controls 172 +/- 5,0; for HR: n=7, controls 380 +/- 6,3
Method: Systolic blood pressure (SBP) and heart rate (HR) were measured, by the tail cuff method, in young prehypertensive male rats (MHS or SHR) strains before the development of hypertension (4 weeks of age) for recording the basal values of SBP. Groups of 7 rats were formed and subdivided in control and treated groups. The compound, suspended in Methocel 0.5% (w/v), was orally given daily for at least 5 weeks to the treated groups. The control group received only Methocel.
SBP and HR were measured weekly 6 and 24 hrs after treatment. After 5 weeks of treatment, when hypertension was fully developed in the control group (9 weeks of age), washout was started for at least one week, to verify whether the treatment maintained blood pressure low or reestablished the basal values.

Na^+,K^+ -ATPase [2] = target: T1, Na^+,K^+ -ATPase (Homo sapiens, UniProt P05023); test: inhibition of the activity of the purified Na+,K+-ATPase (% hydrolysis of 32P-ATP); format: biochemical
T1 construct: Na^+,K^+ -ATPase receptor purified according to Jorghensen; from tissue
Source text: (§1) To test the affinity for the receptor site of the Na^+,K^+ -ATPase and the agonist or antagonist activity on the enzyme, the following tests were used:
b) inhibition of the activity of the purified Na^+,K^+ -ATPase measured as % of hydrolysis of ^32 P-ATP in presence and in absence of the tested compound (Doucet A. et al., Am. J. Physiol., 1986, 251, F851)

Na^+,K^+ -ATPase [3] = target: T1, Na^+,K^+ -ATPase; test: displacement of the specific 3H-ouabain binding from the purified Na+,K+-ATPase receptor
Source text: as §1
a) displacement of the specific ^3 H-ouabain binding from the Na^+,K^+ -ATPase receptor purified according to Jorghensen (Jorghensen P., BBA, 1974, 356, 36) and Erdmann (Erdmann E. et al., Arzneim. Forsh., 1984, 34, 1314);

[4] = 32P-ATP hydrolysis, purified Na+,K+-ATPase, read-out: Inhibitory Activity log IC50 (converted)
[5] = 3H-ouabain, purified Na+,K+-ATPase, read-out: Binding 3H-Ouab. Displacement log IC50 (converted)

Row | Structure (SMILES) | SBP [1] | HR [1] | IC50 (Na^+,K^+ -ATPase [2]; [4]) | IC50 (Na^+,K^+ -ATPase [3]; [5]) | IC50 (Na^+,K^+ -ATPase [2]) | IC50 (Na^+,K^+ -ATPase [3])
1 | CN(C)CCO/N=C/[C@H]1CC[C@]2(O)C[C@@H](c3ccccc3)CC[C@]12C [I-ap, (1S,3aS,5S,7aR)-1-[(E)-2-Dimethylaminoethoxyimino]methyl-5-phenyl-7a-methylperhydroinden-3a-ol] | 155 +/- 4,3 mm Hg | 370 +/- 10,5 bEATS/min. | 39.8 µM | 2 µM |  | 
2 | CN(C)CCO/N=C/[C@H]1CC[C@]2(O)C[C@@H](c3cccc(O)c3)CC[C@]12C [I-au, (1S,3aS,5S,7aR)-1-[(E)-2-Dimethylaminoethoxyimino]methyl-5-(3-hydroxyphenyl)-7a-methylperhydroinden-3a-ol] |  |  | 50.1 µM | 6.31 µM |  | 
3 | CN(C)CCO/N=C/[C@H]1CC[C@]2(O)C[C@@H](c3ccc(O)cc3)CC[C@]12C [I-ax, (1S,3aS,5S,7aR)-1-[(E)-2-Dimethylaminoethoxyimino]methyl-5-(4-hydroxyphenyl)-7a-methylperhydroinden-3a-ol] | 156 +/- 4,6 mm Hg | 383 +/- 11,4 bEATS/min. | 39.8 µM | 1.58 µM |  | 
4 | C[C@]12CC[C@H](c3ccc(CO)cc3)C[C@@]1(O)CC[C@@H]2/C=N/OCCN [I-bb, (1S,3aS,5S,7aR)-1-[(E)-2-Aminoethoxyimino]methyl-5-(4-hydroxymethylphenyl)-7a-methylperhydroinden-3a-ol] |  |  | 25.1 µM | 1.58 µM |  | 
5 | CN(C)CCO/N=C/[C@H]1CC[C@]2(O)C[C@@H](c3ccc(CO)cc3)CC[C@]12C [I-bc, (1S,3aS,5S,7aR)-1-[(E)-2-Dimethylaminoethoxyimino]methyl-5-(4-hydroxymethylphenyl)-7a-methylperhydroinden-3a-ol] | 160 +/- 7,8 mm Hg | 377 +/- 10,5 bEATS/min. | 50.1 µM | 5.01 µM |  | 
6 | Cc1ccc([C@H]2CC[C@]3(C)[C@@H](/C=N/OCCN)CC[C@]3(O)C2)cc1 [I-bg, (1S,3aS,5S,7aR)-1-[(E)-2-Aminoethoxyimino]methyl-5-(4-methylphenyl)-7a-methylperhydroinden-3a-ol oxalate] |  |  |  |  | 31.6 µM | 3.98 µM
7 | Cc1ccc([C@H]2CC[C@]3(C)[C@@H](/C=N/OCCN(C)C)CC[C@]3(O)C2)cc1 [I-bh, (1S,3aS,5S,7aR)-1-[(E)-2-Dimethylaminoethoxyimino]methyl-5-(4-methylphenyl)-7a-methylperhydroinden-3a-ol] |  |  | 50.1 µM | 6.31 µM |  | 
8 | CN(C)CCO/N=C/[C@H]1CC[C@]2(O)C/C(=C\CCO)CC[C@]12C [I-bx, (1S,3aS,7aR)-1-[(E)-2-Dimethylaminoethoxyimino]methyl-5-[(Z)-3-hydroxypropyliden]-7a-methylperhydroinden-3a-ol] |  |  | 63.1 µM | 12.6 µM |  | 
9 | CN(C)CCO/N=C/[C@H]1CC[C@]2(O)C/C(=C/CCO)CC[C@]12C [I-by, (1S,3aS,7aR)-1-[(E)-2-Dimethylaminoethoxyimino]methyl-5-[(E)-3-hydroxypropyliden]-7a-methylperhydroinden-3a-ol] |  |  | 63.1 µM | 20 µM |  | 
10 | CN(C)CCONC[C@H]1CC[C@]2(O)C[C@@H](c3ccccc3)CC[C@]12C [I-df, (1S,3aS,5S,7aR)-1-(2-Dimethylaminoethoxyamino)methyl-5-phenyl-7a-methylperhydroinden-3a-ol oxalate] |  |  |  |  | 50.1 µM | 6.31 µM
11 | CN(C)CCONC[C@H]1CC[C@]2(O)C[C@@H](c3cccc(O)c3)CC[C@]12C [I-di, (1S,3aS,5S,7aR)-1-(2-Dimethylaminoethoxyamino)methyl-5-(3-hydroxyphenyl)-7a-methylperhydroinden-3a-ol oxalate] |  |  |  |  | 50.1 µM | 7.94 µM
